US7745657B2, “D-homoandrosta-17-yl carbamate derivatives as selective glucocorticoid receptor ligands” (Merck Sharp & Dohme Corp., priority 2005, dated 2010)

Target: T1, human GR (Homo sapiens, UniProt P04150)
T1 construct: U937 cells contain an endogenous glucocorticoid receptor (GR); endogenous in cells; host or cells: U937 cells stably transfected with the TNF-alpha promoter / beta-lactamase reporter
T1 sequence (P04150 1-777): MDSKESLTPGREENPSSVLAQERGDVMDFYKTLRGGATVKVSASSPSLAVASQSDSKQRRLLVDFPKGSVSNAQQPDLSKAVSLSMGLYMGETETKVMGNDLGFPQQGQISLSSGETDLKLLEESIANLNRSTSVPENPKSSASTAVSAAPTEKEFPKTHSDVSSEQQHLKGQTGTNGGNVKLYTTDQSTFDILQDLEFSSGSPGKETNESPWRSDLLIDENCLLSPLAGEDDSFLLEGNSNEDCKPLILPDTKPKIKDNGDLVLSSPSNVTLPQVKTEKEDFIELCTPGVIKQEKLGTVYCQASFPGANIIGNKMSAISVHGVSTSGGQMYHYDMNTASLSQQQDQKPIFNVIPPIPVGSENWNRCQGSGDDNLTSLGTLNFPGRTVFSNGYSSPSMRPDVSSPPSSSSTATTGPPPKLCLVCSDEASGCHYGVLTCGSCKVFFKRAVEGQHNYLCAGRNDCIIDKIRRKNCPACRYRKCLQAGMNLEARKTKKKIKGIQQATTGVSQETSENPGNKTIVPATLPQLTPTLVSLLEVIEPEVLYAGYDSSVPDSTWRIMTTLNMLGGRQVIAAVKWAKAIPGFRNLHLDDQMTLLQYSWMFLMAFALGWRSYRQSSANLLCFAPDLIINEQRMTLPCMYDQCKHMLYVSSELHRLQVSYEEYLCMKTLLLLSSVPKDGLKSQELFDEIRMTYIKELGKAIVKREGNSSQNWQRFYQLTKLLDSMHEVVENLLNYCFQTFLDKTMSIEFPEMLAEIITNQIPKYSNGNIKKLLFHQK
Assay: Transrepression assay, TNFα-β-lactamase reporter gene in U937 cells
Type: cell-based
Details: U-937, PMA/LPS stimulated, activity repressed by 100 nM dexamethasone alone set as 100%, read-out: maximal activity
Description: This assay assesses the ability of test compounds to control transcription from the TNFα-β-lactamase reporter gene in U937 cells, a human myelomonocytic leukemia cell line that naturally expresses the human GR. The assay measures compound dependent-repression of the TNFα promoter linked to a reporter gene.
The human U937 cells that had been stablely transfected with the TNF-αpromoter driving β-lactamase are used for this assay. U937 cells contain an endogenous glucocorticoid receptor (GR). Cells are maintained in RPMI 1640 Growth medium (Gibco Cat#11875-093) containing 25 mM HEPES, 10% FBS, 2 mM L-Glutamine, 1 mM Sodium pyruvate, 25 μg/ml Gentamicin (Gibco Cat#15710-064), 1:1000 2-Mercaptoethanol (Gibco Cat#21985-023) and 0.8 mg/ml G418 (Gibco Cat#10131-027). The density of the cells in the flask needs to be about 1×10^6−3×10^6/ml at the time of harvest. Usually, the cells are split to 1.2˜1.4×10^5/ml (1:10) 3 days prior to the assay. 50,000 cells/well are plated in 96 well black-walled plates the day of assay. Test compounds are added 10 μL/well, and cells are incubated at 37° C. for 30˜45 min. For assaying compounds, first dilute 1:10 in DMSO to make 1 mM, then further dilute 1:100 in medium to make 10× stock prior to adding to the cells. Add 50 ng/ml PMA (Sigma, cat# P8139) 10 μL/well to a final concentration 5 ng/ml, and 1 μg/ml LPS (Sigma, cat# L4130) 10 μL/well to a final concentration 100 ng/ml. Incubate cells at 37° C. overnight for ˜18 hr. PMA is stored frozen as 100 μg/ml stock in DMSO. Dilute 1:10 in DMSO for a working stock of 10 μg/ml and store at −20 C. For assaying, dilute the 10 μg/ml working stock 1:200 in medium to make a 10× solution (50 ng/ml). Store frozen LPS at 1 mg/ml in PBS, dilute 1:1000 in medium to make 10× (1 μg/ml) for the assay. Add 6× loading buffer (CCF2-AM) 20 μL/well, and incubate at room temperature for 70˜90 min. […] The activity repressed by 100 nM dexamethasone alone is set as 100% activity.

Emax, > 5%:
C[C@H]1CC2C3CCC4=CC(=O)C=C[C@]4(C)[C@@]3(F)[C@@H](O)C[C@]2(C)C(=O)[C@]1(CO)OC(=O)NC12CC3CC(CC(C3)C1)C2 (stereo partly drawn) [Example 1, (11β,16β,17α)-9-fluoro-11-hydroxy-16-methyl-3,17a-dioxo-17-(hydroxymethyl)-d-homoandrosta-1,4-dien-17-yl-(1-adamantyl)carbamate]
CCCC(C)NC(=O)OC1(CO)C(=O)C2(C)CC(O)C3(F)C(CCC4=CC(=O)C=CC43C)C2CC1C [Example 2, (11β,16β,17α)-9-fluoro-11-hydroxy-16-methyl-3,17a-dioxo-17-(hydroxymethyl)-D-homoandrosta-1,4-dien-17-yl-(2-pentyl)carbamate]
CCCC(C)CNC(=O)OC1(CO)C(=O)C2(C)CC(O)C3(F)C(CCC4=CC(=O)C=CC43C)C2CC1C [Example 3, (11β,16β,17α)-9-fluoro-11-hydroxy-16-methyl-3,17a-dioxo-17-(hydroxymethyl)-D-homoandrosta-1,4-dien-17-yl-(2-methyl-pentyl)carbamate]
CC(=O)OCC1(OC(=O)NC23CC4CC(CC(C4)C2)C3)C(=O)C2(C)CC(OC(=O)C(F)(F)F)C3(F)C(CCC4=CC(=O)C=CC43C)C2CC1C [Example 5, (11β,16β,17α)-9-fluoro-11-trifluoroacetoxy-16-methyl-3,17a-dioxo-17-[(acety1oxy)methy1]-D-homoandrosta-1,4-dien-17-yl-(1-adamantyl)carbamate]
CC(=O)OCC1(OC(=O)NC23CC4CC(CC(C4)C2)C3)C(=O)C2(C)CC(O)C3(F)C(CCC4=CC(=O)C=CC43C)C2CC1C [Example 6, (11β,16β,17α)-9-fluoro-11-hydroxy-16-methyl-3,17a-dioxo-17-[(acetyloxy)methyl]-D-homoandrosta-1,4-dien-17-yl-(1-adamantyl)carbamate]
CC1CC2C3CCC4=CC(=O)C=CC4(C)C3(F)C(OC(=O)C(F)(F)F)CC2(C)C(=O)C1(CO)OC(=O)NC12CC3CC(CC(C3)C1)C2 [Example 7, (11β,16β,17α)-9-fluoro-11-trifluoroacetoxy-16-methyl-3,17a-dioxo-17-(hydroxymethyl)-D-homoandrostra-1,4-dien-17-yl-(1-adamantyl)carbamate]
CC1CC2C3CCC4=CC(=O)C=CC4(C)C3(F)C(O)CC2(C)C(=O)C1(CO)OC(=O)NC1CCCCC1 [Example 9, (11β,16β,17α)-9-fluoro-11-hydroxy-16-methyl-3,17a-dioxo-17-(hydroxymethyl)-D-homoandrosta-1,4-dien-17-yl-(cyclohexyl)carbamate]
